From patent publication US11130960B2, “Methods for conferring or enhancing herbicide resistance on plants and/or alga with protoporphyrinogen oxidase variants” (FARM HANNONG CO., LTD., priority 2014, dated 2021)

Experiments:
Assay in all cases: Seed germination / growth on ½ MS medium containing herbicide
[1] = system: wild-type Arabidopsis thaliana (Col-0); format: in vivo; conditions: ½ MS medium with 70 nM Tiafenacil, 50 uM glufosinate, or 70 nM Tiafenacil and 50 uM glufosinate
Description: (§1) To examine tiafenacil resistance of T2 generation seeds which survived under treatment of 1 μM tiafenacil, among the CyPPO2 and CyPPO8 transformants, Arabidopsis thaliana seeds were sown in ½ MS medium (1.125 g/L of MS salt, 10 g/L of sucrose, 7 g/L of Agar) containing 70 nM tiafenacil. […] Therefore, survival under 70 nM tiafenacil means that a plant has resistance against tiafenacil.
(§2) In Arabidopsis thaliana transformant including CyPPO2 or CyPPO8 gene, which was obtained by transformation using the plant transformation vector prepared in Example 6, the PPO activity-inhibiting herbicide-resistant gene and glufosinate-resistant gene are expressed at the same time. Therefore, it was examined whether cross-treatment of Arabidopsis thaliana transformant with two herbicides, namely, PPO activity-inhibiting herbicide and glufosinate is effective for weed control. To this end, seeds of CyPPO2 and BAR gene-inserted Arabidopsis thaliana transformant, or CyPPO8 and BAR gene-inserted Arabidopsis thaliana transformant were sterilized and treated at low temperature of 4° C. for 2 days. The seeds were sown in a ½ MS medium (Duchefa), a ½MS medium containing 70 nM Tiafenacil, a ½MS medium containing 50 uM glufosinate, or a ½MS medium containing 70 nM Tiafenacil and 50 uM glufosinate, and grown at 23° C. under 16 hour-light/8 hour-dark conditions for 7-14 days. Arabidopsis thaliana on the herbicide media was CyPPO2 or CyPPO8-transformed seed and the wild-type Col0 as a control, respectively. The transformant and the control were cultured on herbicide media. After 2 weeks, they were examined.
(§3) In Example 9, it was confirmed that Arabidopsis thaliana transformant prepared in the present invention has resistance against the two PPO-based herbicides, Tiafenacil and Saflufenacil at the same time, and therefore, it was tested whether the cross-treatment of Arabidopsis thaliana transformant with Tiafenacil and Saflufenacil is effective for weed control. To this end, seeds of CyPPO2 or CyPPO8 gene-inserted Arabidopsis thaliana transformant were sterilized and treated at low temperature of 4° C. for 2 days. The seeds were sown in a ½ MS medium, a ½MS medium containing 70 nM Tiafenacil, a ½MS medium containing 70 nM Saflufenacil, or a ½MS medium containing 35 nM Tiafenacil and 35 nM Saflufenacil, and grown at 23° C. under 16 hour-light/8 hour-dark conditions for 7-14 days. Arabidopsis thaliana on the herbicide media was CyPPO2 or CyPPO8-transformed seed and the wild-type Col0 as a control, respectively. The transformant and the control were cultured on herbicide media. After 2 weeks, they were examined.

CyPPO2 transformants = format: in vivo, Arabidopsis thaliana; conditions: CyPPO2 and BAR gene-inserted; ½ MS medium with 70 nM Tiafenacil, 50 uM glufosinate, or both
Description: as §1, §2, §3

CyPPO8 transformants = format: in vivo, Arabidopsis thaliana; conditions: CyPPO8 and BAR gene-inserted; ½ MS medium with 70 nM Tiafenacil, 50 uM glufosinate, or both
Description: as §1, §2, §3

CP(=O)(O)CCC(N)C(=O)O (stereo not drawn) [glufosinate]
germination / growth on herbicide medium after 2 weeks [1]: not germinated | germination / growth on herbicide medium after 2 weeks (CyPPO2 transformants): normally grew | germination / growth on herbicide medium after 2 weeks (CyPPO8 transformants): normally grew
